Experimental data from US11767341B2, “Lincosamide antibiotics and uses thereof” (President and Fellows of Harvard College, priority 2017, dated 2023).
≈ marks a conversion by molar mass, not a printed value. Like-named read-outs stand apart in the source and are kept apart here.

What was measured:
Assay in all cases: MIC determination
Format in all cases: cell-based
S. aureus ATCC 29213 = conditions: Staphylococcus aureus
S. aureus BAA 977 iErmA = conditions: Staphylococcus aureus, BAA977
[1] = test system: S. aureus MP-549 msr(a) USA 300; conditions: Staphylococcus aureus, USA300, S. aureus MP-549 msr(a) USA 300
[2] = test system: S. aureus Micromyx USA 300; conditions: Staphylococcus aureus, USA300; S. aureus Micromyx USA 300; read-out: MIC
[3] = test system: S. aureus MP-513 clinical cErm; conditions: Staphylococcus aureus
S. aureus MMX 3035 cErmA = conditions: Staphylococcus aureus, MMX3035CERMA
S. pneumoniae ATCC 49619 = conditions: Streptococcus pneumoniae, ATCC49619; S. pneumoniae ATCC 49619; read-out: MIC
[4] = test system: S. pneumoniae MMX 3028 cErmB; conditions: Streptococcus pneumoniae, MMX3028CERMB
[5] = test system: S. pneumoniae MMX 3031 cMefA; conditions: Streptococcus pneumoniae, MMX3031CMEFA
S. pyogenes ATCC 19615 = conditions: Streptococcus pyogenes, ATCC19615
[6] = test system: S. pyogenes MMX 946 Macrolide-Resistant; conditions: Streptococcus pyogenes, read-out: MIC
E. faecalis ATCC 29212 = conditions: Enterococcus faecalis
[7] = test system: E. faecalis MMX 847 Macrolide-Resistant; conditions: Enterococcus faecalis
C. difficile BAA 1805 = conditions: Clostridioides difficile, BAA1805; C. difficile BAA 1805; read-out: MIC
B. fragilis ATCC 25285 = conditions: Bacteroides fragilis, ATCC25285
E. coli ATCC 25922 = conditions: Escherichia coli
[8] = test system: E. coli MMX TolC parent strain; conditions: Escherichia coli
E. coli MMX 0121 ΔTolC = conditions: Escherichia coli
E. coli MP-9 ΔTolC = conditions: Escherichia coli
[9] = test system: E. coli MP-74 LptD mutant; conditions: Escherichia coli
P. aeruginosa ATCC 27853 = conditions: Pseudomonas aeruginosa, ATCC27853
[10] = test system: P. aeruginosa MMX Mex parent strain; conditions: Pseudomonas aeruginosa
[11] = test system: P. aeruginosa MMX 3476 Δmex; conditions: Pseudomonas aeruginosa
H. influenzae ATCC 49247 = conditions: Haemophilus influenzae, ATCC49247
K. pneumoniae ATCC 10031 = conditions: Klebsiella pneumoniae, ATCC10031
[12] = test system: S. aureus UNT96, NRS710, MP-618 (USA 100, Erythro >8); conditions: Staphylococcus aureus
[13] = test system: S. aureus UNT-146, MP-620, TP 506 (ermA); conditions: Staphylococcus aureus
[14] = test system: S. aureus UNT-120, MP-619, NRS22 (USA 600, GISA); conditions: Staphylococcus aureus
[15] = test system: S. pneumoniae UNT-038, MP-626, TP 160 (mefA); conditions: Streptococcus pneumoniae
[16] = test system: S. pneumoniae UNT-039, MP-627, TP1517 (mefA); conditions: Streptococcus pneumoniae
[17] = test system: S. pyogenes UNT-014, MP-625 MacRes; conditions: Streptococcus pyogenes
E. faecalis UNT-047 VRE = conditions: Enterococcus faecalis, VRE
[18] = ATCC29213, S. aureus ATCC 29213, read-out: MIC
[19] = S. pyogenes ATCC 19615, read-out: MIC

Compound | MIC (S. aureus ATCC 29213; [18]) [µg/mL] | MIC (S. aureus BAA 977 iErmA) [µg/mL] | MIC [1] [µg/mL] | MIC [3] [µg/mL] | MIC (S. pneumoniae ATCC 49619) [µg/mL] | MIC (S. pyogenes ATCC 19615; [19]) [µg/mL] | MIC (E. faecalis ATCC 29212; ATCC29212) [µg/mL] | MIC (E. coli ATCC 25922; ATCC25922) [µg/mL] | MIC (E. coli MP-9 ΔTolC) [µg/mL] | MIC [9] [µg/mL] | MIC (P. aeruginosa ATCC 27853) [µg/mL] | MIC (K. pneumoniae ATCC 10031) [µg/mL] | MIC [16] [µg/mL] | also measured
CSC1O[C@H]([C@H](NC(=O)[C@H]2NC[C@@H]3CC=CCO[C@H]32)[C@H](C)Sc2ccc(-c3cncnc3)cc2)C(O)[C@@H](O)[C@H]1O (stereo partly drawn) [FSA-27049] | 1 (≈ 1.7 µM) | 2 (≈ 3.4 µM) | 0.25 (≈ 0.425 µM) | > 64 | ≤ 0.06 | ≤ 0.06 | 64 (≈ 109 µM) | > 64 | 64 (≈ 109 µM) | 32 (≈ 54.4 µM) | > 64 | – | – | MIC [2]: 1 µg/mL (≈ 1.7 µM); MIC (S. aureus MMX 3035 cErmA): > 64 µg/mL; MIC [4]: 32 µg/mL (≈ 54.4 µM); MIC [5]: ≤ 0.06 µg/mL; MIC ([6]; S. pyogenes MMX 946 Macrolide-Resistant (MacRes)): 2 µg/mL (≈ 3.4 µM); MIC [7]: > 64 µg/mL; MIC (C. difficile BAA 1805): 1 µg/mL (≈ 1.7 µM); MIC (B. fragilis ATCC 25285): > 64 µg/mL; MIC [8]: > 64 µg/mL; MIC (E. coli MMX 0121 ΔTolC): 8 µg/mL (≈ 13.6 µM); MIC [10]: > 64 µg/mL; MIC [11]: > 64 µg/mL; MIC (H. influenzae ATCC 49247): 32 µg/mL (≈ 54.4 µM)
CSC1O[C@H]([C@H](NC(=O)[C@H]2NC[C@@H]3CN(C)CCO[C@H]32)[C@H](C)Cl)C(O)C(O)[C@H]1O (stereo partly drawn) [FSA-503002] | 64 (≈ 141 µM) | > 64 | > 64 | > 64 | – | – | – | > 64 | > 64 | – | > 64 | > 64 | – | –
CSC1O[C@H]([C@H](NC(=O)[C@H]2NC[C@@H]3CN(Cc4ccnc(N)c4)CCO[C@H]32)[C@H](C)Cl)C(O)C(O)[C@H]1O (stereo partly drawn) [FSA-504849] | 16 (≈ 29.3 µM) | 32 (≈ 58.6 µM) | 8 (≈ 14.6 µM) | > 64 | – | – | – | > 64 | > 64 | – | > 64 | > 64 | – | –
CSC1O[C@H]([C@H](NC(=O)[C@H]2NC[C@@H]3CNCCO[C@H]32)[C@H](C)Cl)C(O)C(O)[C@H]1O (stereo partly drawn) [FSA-503001] | 64 (≈ 145 µM) | > 64 | > 64 | > 64 | – | – | – | > 64 | > 64 | – | > 64 | > 64 | – | –
CSC1O[C@H]([C@H](NC(=O)[C@H]2NC[C@@H]3C[C@@H](O)[C@@H](O)CO[C@H]32)[C@H](C)Cl)C(O)[C@@H](O)[C@H]1O (stereo partly drawn) [FSA-501076] | – | > 64 | > 64 | > 64 | 64 (≈ 136 µM) | – | > 64 | > 64 | > 64 | – | > 64 | > 64 | 32 (≈ 67.9 µM) | MIC (S. aureus ATCC 29213; ATCC29213): > 64 µg/mL; MIC [12]: > 64 µg/mL; MIC [13]: > 64 µg/mL; MIC [14]: > 64 µg/mL; MIC [15]: 64 µg/mL (≈ 136 µM); MIC (S. pyogenes ATCC 19615): > 64 µg/mL; MIC [17]: > 64 µg/mL; MIC (E. faecalis UNT-047 VRE): > 64 µg/mL
CSC1O[C@H]([C@H](NC(=O)[C@H]2NC[C@@H]3C[C@@H](c4ccccc4F)CCO[C@H]32)[C@H](C)Cl)C(O)[C@@H](O)[C@H]1O (stereo partly drawn) [FSA-511100] | 0.25 (≈ 0.469 µM) | 4 (≈ 7.5 µM) | 0.25 (≈ 0.469 µM) | – | 0.125 (≈ 0.234 µM) | 0.25 (≈ 0.469 µM) | – | – | 32 (≈ 60 µM) | 16 (≈ 30 µM) | – | – | 1 (≈ 1.88 µM) | MIC ([3]; S. aureus MP-513 clinical cErm, read-out: MIC): > 256 µg/mL; MIC ([4]; S. pneumoniae MMX 3028 cErmB, read-out: MIC): > 256 µg/mL; MIC ([6]; S. pyogenes MMX 946 MacRes): > 256 µg/mL; MIC (E. faecalis ATCC 29212; ATCC29212, read-out: MIC): > 256 µg/mL; MIC (K. pneumoniae ATCC 10031; K. pneumoniae ATCC 10031, read-out: MIC): > 64 µg/mL; MIC (E. coli ATCC 25922; ATCC25922, E. coli ATCC 25922, read-out: MIC): > 64 µg/mL; MIC (H. influenzae ATCC 49247; H. influenzae ATCC 49247, read-out: MIC): 64 µg/mL (≈ 120 µM)
